Measurements reported in US6794387B2, “Pharmaceutically active compounds” (Pfizer Inc., priority 2001, dated 2004).

What was measured:
[1] = In vitro metabolism in human hepatic microsomal fractions (HLM half-life); assay type: in vitro ADME; conditions: human liver microsomes, initial substrate concentration 1 μM, 37° C.
Experimental: In vitro metabolism experiments were carried out in the hepatic microsomal fractions from man. Transplant-quality human liver tissue was obtained from the International Institute for the Advancement of Medicine (Exton, Pa., USA). Microsomes were prepared according to the method described in Biochemical Pharmacology, […], 48, 2147-2156 and stored at −80° C. The concentrations of protein and cytochrome P450 were determined by standard methods described in Journal of Biological Chemistry, 1951, 193, 265-275 and Journal of Biological Chemistry, 1964, 239, 2370-2378.
Microsomal incubations (1.5 ml) were prepared containing 0.5 μM cytochrome P450, 200 mM phosphate buffer (pH 7.4), 0.1 M MgCl2, 0.1 M isocitric acid, 1 unit/ml isocitrate dehydrogenase and 20 mM β-NADP. […] The extracts were evaporated to dryness and analysed by LC-MS/MS (Hewlett Packard HP1100 binary pump, Hypersil HS100 C18, 5 cm by 4.6 mm internal diameter, 5 μm column using a mobile phase of 2 mM ammonium acetate in 90:10 methanol/water, aqueous portion adjusted to pH 4 with glacial acetic acid, and a flowrate of 1 ml/min). […] Disappearance rate constants (k) in human microsomal preparations were determined by linear regression of the log ratio (compound under study/internal standard) versus time. The in vitro human microsomal half-lives were determined according to the equation t1/2=In 2/k. […]

[2] = target: T1, cGMP PDE5 (human corp. cav.) (Homo sapiens, UniProt O76074); experiment: Phosphodiesterase (PDE) inhibitory activity, cGMP PDE5; assay type: biochemical; conditions: enzyme from human corpus cavernosum
T1 construct: from tissue; host or cells: human corpus cavernosum
Experimental: Compounds of the present invention are potent and selective cGMP PDE5 inhibitors. In vitro PDE inhibitory activities against cyclic guanosine 3′,5′-monophosphate (cGMP) and cyclic adenosine 3′,5′-monophosphate (cAMP) phosphodiesterases were determined by measurement of their IC50 values (the concentration of compound required for 50% inhibition of enzyme activity).
The required PDE enzymes were isolated from a variety of sources, including human corpus cavernosum, human platelets, human cardiac ventricle, human skeletal muscle and human and canine retina, essentially by the method of W. J. Thompson and M. M. Appleman (Biochem., 1971, 10, 311). […]
Assays were performed either using a modification of the “batch” method of W. J. Thompson et al. (Biochem., 1979, 18, 5228) or using a scintillation proximity assay for the direct detection of AMP/GMP using a modification of the protocol described by Amersham plc under product code TRKQ7090/7100. […] Plates were re-sealed and shaken for 20 min, after which the beads were allowed to settle for 30 min in the dark and then counted on a TopCount plate reader (Packard, Meriden, Conn.). Radioactivity units were converted to % activity of an uninhibited control (100%), plotted against inhibitor concentration and inhibitor IC50 values obtained using the ‘Fit Curve’ Microsoft Excel extension or in-house equivalent.

SMILES: CCCCOc1ncc(C(C)=O)cc1-c1nn2c(CC)nc(C)c2c(=O)[nH]1 [Example 1, 2-(5-Acetyl-2-butoxy-3-pyridinyl)-7-ethyl-5-methylimidazo[5,1-f][1,2,4]triazin-4(3H)-one]
- half-life at 1 μM ([1]; pH 7.4, read-out: HLM t1/2): 21 min
- IC50 [2]: 1.34 nM

SMILES: CCCc1nc(C)c2c(=O)[nH]c(-c3cc(S(=O)(=O)N4CCN(CC)CC4)ccc3OCC)nn12 [Comound A, 2-[2-ethoxy-5-(4-ethyl-piperazin-1-yl-1-sulphonyl)-phenyl]-5-methyl-7-propyl-3H-imidazo[5,1-f][1,2,4]triazin-4-one, reference compound]
- HLM t1/2 [1]: 4 min

SMILES: CCCCOc1ncc(C(C)=O)cc1-c1nn2c(CC)nc(CCC)c2c(=O)[nH]1 [Example 2, 2-(5-Acetyl-2-butoxy-3-pyridinyl)-7-ethyl-5-propylimidazo[5,1-f][1,2,4]triazin-4(3H)-one]
- IC50 [2]: 1.96 nM
